# Experimental data as given in patent publication US20260308158A1, “TARGETING RNAS ASSOCIATED WITH TAUOPATHIES WITH SMALL MOLECULES” (University of Florida Research Foundation, Incorporated, priority 2023, published 2026).
# How the values were obtained:
# [1] = test system: endogenous MAPT pre-mRNA in LAN5 cells; test: Chem-CLIP / C-Chem-CLIP in LAN5 cells; format: cell-based; conditions: pre-incubation
# Description: Measuring Cellular Occupancy by Chem-CLIP and C-Chem-CLIP. LAN5 cells were grown to ~80% confluency in 100 mm diameter dishes. HeLa cells were transfected as described in the Luciferase Reporter Assay to Study Exon 10 Alternative Splicing except they were re-plated in 100 mm diameter dishes and grown to ~80% confluency (~1 day). The cells were then treated with 1.5 μM of 3 or 4 for 12 h. For C-Chem-CLIP, dilutions of competing compounds 1 or 2 were pre-incubated with cells for 12 h prior to adding 3. After addition of 3, the cells were incubated for an additional 12 h. After the treatment period, whether for Chem-CLIP or C-Chem-CLIP studies, the cells were washed with 10 mL of 1×DPBS. Ice-cold 1×DPBS (10 mL) was then added to the plate followed by irradiation with 365 nm light in a UV Stratalinker 2400 (Stratagene). Cells were scraped with a cell scraper, transferred to a 15 mL conical vial, and collected by centrifugation. Total RNA was extracted using TRIzol LS Reagent (Invitrogen) per the manufacturer's protocol. […]
# RT-qPCR was performed on RNA samples before and after pull-down as described in Real-Time Quantitative PCR to enable calculation of fold enrichment in the pulled down samples. Relative fold enrichment of tau pre-mRNA was measured using Equation 3: […]
# WT mice = test: Nesting activity, WT mice; format: in vivo, mouse
# Description: Nesting Activity. From Day 1 to Day 20, mice were individually housed and nesting material from the previous day was removed. An intact 3.0 g nestlet was placed within each cage. Around 15 h later, the resulting nest was photographed for qualitative scoring, and the untorn nestlet was weighed if present. All nest images and weights were analyzed by a blinded individual and based on published criteria.^43 In brief, nesting is scored on a rating scale of 1-5 where if the nestlet is over 90% intact, it is given a nestlet score is 1 (Poor; FIG. 4C). When the nestlet is partially torn but >50% remains, the nestlet score is 2; a score of 3 is assigned when 50-90% of the nestlet is torn but spread around the cage and no identifiable nest site is found (Medium; FIG. 4C). When more than 90% of the nestlet is torn and the nest is identifiable but flat, the nestlet score is 4. When a near perfect nest is built and the wall is higher than the mouse's body, it is assigned a nestlet score of 5 (Good; FIG. 4C).
# [2] = test system: WT MAPT mini-gene (exon 10 splicing); test: 4R/3R MAPT mRNA by RT-qPCR, HeLa cells transfected with WT mini-gene; format: cell-based
# Description: RNA Isolation and Real-Time Quantitative PCR (RT-qPCR). HeLa cells were treated as described in the Luciferase Reporter assay to Study Exon 10 Alternative Splicing. LAN5 cells were seeded in 12-well plates at 0.2×10^6 cells per well, treated with compound or ASO, and incubated for 48 h. Compound stocks prepared in DMSO and ASO stocks prepared in water were diluted in growth medium and added to cells. Total RNA was extracted from cells and analyzed via RT-qPCR to determine levels of 3R and 4R tau mRNA. In brief, the cells were washed with 1×DPBS and then lysed in the well using 300 μL of Lysis Buffer provided in a Quick-RNA MiniPrep kit (Zymo Research), which was used to extract total RNA per the manufacturer's protocol including the on-column DNase I digestion. The concentration of total RNA was measured by NanoDrop 2000 (Thermo Fisher Scientific). Only samples with OD260/OD280>1.8 were carried forward for analysis. Reverse transcription (RT) was carried out on 200 ng of total RNA using a qScript cDNA synthesis kit (QuantaBio) in a total volume of 10 μL according to the manufacturer's protocol. […] 4R/3R ratio were analyzed using ΔΔCt method using Equation 2: […]
# [3] = Plasma protein binding by equilibrium dialysis; format: in vitro ADME; conditions: 37° C., 6 h (2 at 5 μM), read-out: free fraction in plasma
# Description: Plasma and brain binding. Plasma protein binding was determined by equilibrium dialysis using a Thermo Scientific™ RED Device per the manufacturer's protocol. Each sample was prepared by addition of 2 into 100 μL plasma with final concentration of 5 μM (0.1% (v/v) DMSO). 1×PBS was used as dialysis buffer and was added into the buffer chamber. The plate was incubated with shaking at 37° C. for 6 h. The concentration of 2 in the plasma and buffer compartments was determined as described in Quantitation of 2 in Mouse Plasma and Brain. The free fraction was calculated as [buffer]/[plasma].
smiles,measurement,setting,value
"COc1cc(N)ncc1CCCN(C)CCCn1cnc2c3ccccc3n(C)c2c1=O [Compound 2, 3-(3-((3-(6-amino-4-methoxypyridin-3-yl)propyl)(methyl)amino)propyl)-5-methyl-3,5-dihydro-4H-pyrimido[5,4-b]indol-4-one]",competition of cross-linking of 3,[1],competed by 1 or 2 in dose dependent fashion
same,nesting behavior vs no treatment,"WT mice; 20 days, 100 mg/kg p.o. q.o.d.",no significant difference in nesting behavior
same,nest score at Day 20,"WT mice; scale 1-5, 100 mg/kg p.o. q.o.d.",4.1±0.2
same,average nest score over time,"WT mice; scale 1-5, over 20 days, 100 mg/kg p.o. q.o.d.",3.7-4.3
same,PSI10 (PSI of MAPT exon 10) vs vehicle,"[2]; HeLa, WT mini-gene",downregulated
same,inhibition at 1.5 µM,"[2]; Homo sapiens, 2 at 1.5 μM, 48 h, HeLa WT mini-gene, read-out: reduction of 4R/3R ratio (mRNA)",41 ± 3%
same,fraction unbound at 6 h,[3],0.089 ± 0.009
